Data taken from patent US10189836B2, “Therapeutic compounds, compositions and methods of use thereof” (Genentech, Inc., priority 2015, dated 2019).

Key:
[1] = target: isolated recombinant JAK1 kinase domain (Homo sapiens (Human), UniProt P23458); experiment: JAK1 enzyme assay (Caliper LabChip, Ki); type: biochemical; conditions: isolated recombinant JAK1 kinase domain, 1.5 nM enzyme, ATP 25 μM
[2] = target: isolated recombinant JAK2 kinase domain (Homo sapiens (Human), UniProt O60674); experiment: JAK2 enzyme assay (Caliper LabChip, Ki); type: biochemical; conditions: isolated recombinant JAK2 kinase domain, 0.2 nM enzyme, ATP 25 μM
Chain of isolated recombinant JAK2 kinase domain (O60674 849-1124): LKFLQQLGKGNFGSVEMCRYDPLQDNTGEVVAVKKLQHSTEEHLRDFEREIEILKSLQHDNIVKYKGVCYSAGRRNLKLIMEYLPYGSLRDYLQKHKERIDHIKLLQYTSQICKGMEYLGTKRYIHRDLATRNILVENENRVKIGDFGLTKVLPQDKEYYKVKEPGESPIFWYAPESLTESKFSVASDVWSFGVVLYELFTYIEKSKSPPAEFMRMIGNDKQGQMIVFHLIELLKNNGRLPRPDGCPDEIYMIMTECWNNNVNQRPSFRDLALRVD

Chain of isolated recombinant JAK1 kinase domain (P23458 875-1153): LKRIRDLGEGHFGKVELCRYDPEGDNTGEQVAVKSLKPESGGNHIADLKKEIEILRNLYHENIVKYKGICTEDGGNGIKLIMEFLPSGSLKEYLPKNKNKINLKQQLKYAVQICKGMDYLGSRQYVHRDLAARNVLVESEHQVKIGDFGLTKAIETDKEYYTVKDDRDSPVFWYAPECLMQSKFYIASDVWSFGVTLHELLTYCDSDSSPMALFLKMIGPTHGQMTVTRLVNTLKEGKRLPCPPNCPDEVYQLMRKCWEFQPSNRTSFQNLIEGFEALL

SMILES	Ki [1]	Ki [2]
CN1CCN(C(=O)Cn2cc(Nc3nc4c(N5CC6CCCC(C5)N6C(=O)[C@H]5C[C@@H](C(F)(F)F)C5)cccn4n3)cn2)CC1 [Example 65, 1-(4-methylpiperazin-1-yl)-2-[4-[[8-[9-[3-(trifluoromethyl)cyclobutanecarbonyl]-3,9-diazabicyclo[3.3.1]nonan-3-yl]-[1,2,4]triazolo[1,5-a]pyridin-2-yl]amino]pyrazol-1-yl]ethanone]	0.6 nM	0.8 nM
CN1CCN(C(=O)Cn2cc(Nc3nc4c(N5CC6CCC(C5)N6C(=O)Cc5ccc(F)cc5)cccn4n3)cn2)CC1 [Example 66, 2-(4-fluorophenyl)-1-[3-[2-[[1-[2-(4-methylpiperazin-1-yl)-2-oxo-ethyl]pyrazol-4-yl]amino]-[1,2,4]triazolo[1,5-a]pyridin-8-yl]-3,8-diazabicyclo[3.2.1]octan-8-yl]ethanone]	0.7 nM	1.4 nM
CC(CC(=O)N1C2CCC1CN(c1cccn3nc(Nc4cnn(CC(=O)N5CCN(C)CC5)c4)nc13)C2)C(F)(F)F (stereo not shown) [Example 67, 4,4,4-trifluoro-3-methyl-1-[3-[2-[[1-[2-(4-methylpiperazin-1-yl)-2-oxo-ethyl]pyrazol-4-yl]amino]-[1,2,4]triazolo[1,5-a]pyridin-8-yl]-3,8-diazabicyclo[3.2.1]octan-8-yl]butan-1-one]	0.8 nM	1.4 nM
CN1CCN(C(=O)Cn2cc(Nc3nc4c(N5CC6CCC(C5)N6C(=O)c5cccc(CC#N)c5)cccn4n3)cn2)CC1 [Example 69, 2-[3-[3-[2-[[1-[2-(4-methylpiperazin-1-yl)-2-oxo-ethyl]pyrazol-4-yl]amino]-[1,2,4]triazolo[1,5-a]pyridin-8-yl]-3,8-diazabicyclo[3.2.1]octane-8-carbonyl]phenyl] acetonitrile]	2.3 nM	9.3 nM
CN1CCN(C(=O)Cn2cc(Nc3nc4c(N5CC6CCC(C5)N6C(=O)C(C)(C)CC(F)(F)F)cccn4n3)cn2)CC1 [Example 71, 4,4,4-trifluoro-2,2-dimethyl-1-[3-[2-[[1-[2-(4-methylpiperazin-1-yl)-2-oxo-ethyl]pyrazol-4-yl]amino]-[1,2,4]triazolo[1,5-a]pyridin-8-yl]-3,8-diazabicyclo[3.2.1]octan-8-yl]butan-1-one]	1.8 nM	1.8 nM
O=C(Cn1cc(Nc2nc3c(N4CC5CCC(C4)N5C(=O)CCC(F)(F)F)cccn3n2)cn1)N1CCC(N2CCOCC2)CC1 [Example 74, 4,4,4-trifluoro-1-[3-[2-[[1-[2-(4-morpholino-1-piperidyl)-2-oxo-ethyl]pyrazol-4-yl]amino]-[1,2,4]triazolo[1,5-a]pyridin-8-yl]-3,8-diazabicyclo[3.2.1]octan-8-yl]butan-1-one]	1 nM	2.7 nM
CN(C)C(=O)CN1CCN(CC2CCN(C(=O)Cn3cc(Nc4nc5c(N6CC7CCC(C6)N7C(=O)CCC(F)(F)F)cccn5n4)cn3)CC2)CC1 [Example 75, N,N-dimethyl-2-[4-[[1-[2-[4-[[8-[8-(4,4,4-trifluorobutanoyl)-3,8-diazabicyclo[3.2.1]octan-3-yl]-[1,2,4]triazolo[1,5-a]pyridin-2-yl]amino]pyrazol-1-yl]acetyl]-4-piperidyl]methyl]piperazin-1-yl]acetamide]	1.4 nM	3.9 nM
CN1CCN(C(=O)Cn2cc(Nc3nc4c(N5CC6CCC(C5)N6C(=O)c5cccs5)cccn4n3)cn2)CC1 [Example 76, 1-(4-methylpiperazin-1-yl)-2-[4-[[8-[8-(thiophene-2-carbonyl)-3,8-diazabicyclo[3.2.1]octan-3-yl]-[1,2,4]triazolo[1,5-a]pyridin-2-yl]amino]pyrazol-1-yl]ethanone]	0.8 nM	1.3 nM
CN1CCN(C(=O)Cn2cc(Nc3nc4c(N5CC6CCC(C5)N6C(=O)CC(C)(C)C(F)(F)F)cccn4n3)cn2)CC1 [Example 77, 4,4,4-trifluoro-3,3-dimethyl-1-[3-[2-[[1-[2-(4-methylpiperazin-1-yl)-2-oxo-ethyl]pyrazol-4-yl]amino]-[1,2,4]triazolo[1,5-a]pyridin-8-yl]-3,8-diazabicyclo[3.2.1]octan-8-yl]butan-1-one]	1.7 nM	2.3 nM
CN1CCN(C(=O)Cn2cc(Nc3nc4c(N5CC6CCC(C5)N6C(=O)c5cncs5)cccn4n3)cn2)CC1 [Example 78, 1-(4-methylpiperazin-1-yl)-2-[4-[[8-[8-(thiazole-5-carbonyl)-3,8-diazabicyclo[3.2.1]octan-3-yl]-[1,2,4]triazolo[1,5-a]pyridin-2-yl]amino]pyrazol-1-yl]ethanone]	0.8 nM	1.3 nM
COC(=O)N1CCN(CC2CCN(C(=O)Cn3cc(Nc4nc5c(N6CC7CCC(C6)N7C(=O)CCC(F)(F)F)cccn5n4)cn3)CC2)CC1 [Example 79, methyl 4-[[1-[2-[4-[[8-[8-(4,4,4-trifluorobutanoyl)-3,8-diazabicyclo[3.2.1]octan-3-yl]-[1,2,4]triazolo[1,5-a]pyridin-2-yl]amino]pyrazol-1-yl]acetyl]-4-piperidyl]methyl]piperazine-1-carboxylate]	0.8 nM	1.6 nM
COC(=O)C1C2CCC1CN(c1cccn3nc(Nc4cnn(CC(=O)N5CCN(C)CC5)c4)nc13)C2 (stereo not shown) [Example 80, methyl 3-[2-[[1-[2-(4-methylpiperazin-1-yl)-2-oxo-ethyl]pyrazol-4-yl]amino]-[1,2,4]triazolo[1,5-a]pyridin-8-yl]-3-azabicyclo[3.2.1]octane-8-carboxylate]	1.5 nM	3.1 nM
CN(C)C(=O)CN1CCN(CC2CCN(C(=O)Cn3cc(Nc4nc5c(N6CC7CCC(C6)N7C(=O)N6CC(C(F)(F)F)C6)cccn5n4)cn3)CC2)CC1 [Example 81, N,N-dimethyl-2-[4-[[1-[2-[4-[[8-[8-[3-(trifluoromethyl)azetidine-1-carbonyl]-3,8-diazabicyclo[3.2.1]octan-3-yl]-[1,2,4]triazolo[1,5-a]pyridin-2-yl]amino]pyrazol-1-yl]acetyl]-4-piperidyl]methyl]piperazin-1-yl]acetamide]	1 nM	0.8 nM
O=C(Cn1cc(Nc2nc3c(N4CC5CCC(C4)N5C(=O)[C@H]4C[C@@H](C(F)(F)F)C4)cccn3n2)cn1)N1CCN(C2CSC2)CC1 [Example 82]	0.4 nM	0.3 nM
O=C(Cn1cc(Nc2nc3c(N4CC5CCC(C4)N5C(=O)[C@H]4C[C@H](C(F)(F)F)C4)cccn3n2)cn1)N1CCN(C2CSC2)CC1 [Example 83, 1-[4-(thietan-3-yl)piperazin-1-yl]-2-[4-[[8-[8-[3-(trifluoromethyl)cyclo-butanecarbonyl]-3,8-diazabicyclo[3.2.1]octan-3-yl]-[1,2,4]triazolo[1,5-a]pyridin-2-yl]amino]pyrazol-1-yl]ethanone]	1.6 nM	4 nM
CN1CCN(C(=O)Cn2cc(Nc3nc4c(N5C[C@H]6CC[C@@H](C5)[C@H]6OCc5cccnc5)cccn4n3)cn2)CC1 [Example 84, 1-(4-methylpiperazin-1-yl)-2-[4-[[8-[(1S,5R)-8-(3-pyridylmethoxy)-3-azabicyclo[3.2.1]octan-3-yl]-[1,2,4]triazolo[1,5-a]pyridin-2-yl]amino]pyrazol-1-yl]ethanone]	0.4 nM	0.8 nM
CN1CCN(C(=O)Cn2cc(Nc3nc4c(N5CC6CCC(C5)N6Cc5ccccc5)cccn4n3)cn2)CC1 [Example 86, 2-[4-[[8-(8-benzyl-3,8-diazabicyclo[3.2.1]octan-3-yl)-[1,2,4]triazolo[1,5-a]alpyridin-2-yl]amino]pyrazol-1-yl]-1-(4-methylpiperazin-1-yl)ethanone]	19.2 nM	105 nM
CN1CCN(C(=O)Cn2cc(Nc3nc4c(N5CC6CCC(C5)N6C(=O)c5ccns5)cccn4n3)cn2)CC1 [Example 87, 2-[4-[[8-[8-(isothiazole-5-carbonyl)-3,8-diazabicyclo[3.2.1]octan-3-yl]-[1,2,4]triazolo[1,5-a]pyridin-2-yl]amino]pyrazol-1-yl]-1-(4-methylpiperazin-1-yl)ethanone]	0.6 nM	0.9 nM
CN1CCN(C(=O)Cn2cc(Nc3nc4c(N5CC6CCC(C5)N6S(=O)(=O)c5cccc(Cl)c5)cccn4n3)cn2)CC1 [Example 88, 2-[4-[[8-[8-(3-chlorophenyl)sulfonyl-3,8-diazabicyclo[3.2.1]octan-3-yl]-[1,2,4]triazolo[1,5-a]pyridin-2-yl]amino]pyrazol-1-yl]-1 - (4-methylpiperazin-1-yl)ethanone]	0.3 nM	0.3 nM
CN1CCN(C(=O)Cn2cc(Nc3nc4c(N5CC6CCC(C5)N6C(=O)c5ccc(Cl)cc5)cccn4n3)cn2)CC1 [Example 89]	3.1 nM	13.4 nM
CN1CCN(C(=O)Cn2cc(Nc3nc4c(N5CC6CCC(C5)N6C(=O)c5cccc(Cl)c5)cccn4n3)cn2)CC1 [Example 90, 2-[4-[[8-[8-(3-chlorobenzoyl)-3,8-diazabicyclo[3.2.1]octan-3-yl]-[1,2,4]triazolo[1,5-a]pyridin-2-yl]amino]pyrazol-1-yl]-1-(4-methylpiperazin-1-yl)ethanone]	0.8 nM	2.3 nM
CN1CCN(C(=O)Cn2cc(Nc3nc4c(N5CC6CCC(C5)N6C(=O)CC5CC(F)(F)C5(F)F)cccn4n3)cn2)CC1 (stereo not shown) [Example 91, 1-[3-[2-[[1-[2-(4-methylpiperazin-1-yl)-2-oxo-ethyl]pyrazol-4-yl]amino]-[1,2,4]triazolo[1,5-a]alpyridin-8-yl]-3,8-diazabicyclo[3.2.1]octan-8-yl]-2(2,2,3,3-tetrafluorocyclobutyl) ethanone]	0.8 nM	0.9 nM
CN1CCN(C(=O)Cn2cc(Nc3nc4c(N5CC6CCC(C5)N6C(=O)C5CC(C#N)C5)cccn4n3)cn2)CC1 (stereo not shown) [Example 92, 3-[3-[2-[[1-[2-(4-methylpiperazin-1-yl)-2-oxo-ethyl]pyrazol-4-yl]amino]-[1,2,4]triazolo[1,5-a]pyridin-8-yl]-3,8-diazabicyclo[3.2.1]octane-8-carbonyl]cyclo-butanecarbonitrile]	0.9 nM	1.7 nM
